In general, melting point refers to the temperature of the solid-liquid transition. `O=S(=O)(Cl)c1ccc2c(c1)OCCO2` [1,4-benzodioxane-6-sulfonyl chloride] returned a melting point of 66 °C. `FC(F)(F)C(F)(F)C(F)(F)C(F)(F)C(F)(F)C(F)(F)F` [perfluorohexanes] showed a melting point of -90 °C. Under `Cc1ccc(-c2ccc(/C=C/C(=O)c3ccco3)o2)cc1` stands 111 °C. Under `N#Cc1ccccc1C#N` [phthalonitrile] stands 140 °C; under `Nc1nc(N)c2nc(-c3ccccc3)c(N)nc2n1` [Triamterene], 306 °C.

For the compound `O=C(O)Cc1ccc(Cl)cc1` [4-chlorophenylacetic acid], the melting point was determined as 105 °C. Under `C=C1N(C)c2ccccc2C1(C)C` [1,3,3-trimethyl-2-methyleneindoline] stands -10 °C; under `Nc1ccccc1C1C=c2ccccc2=N1` (stereo not given) [2-(1H-Indol-2-yl)anilin], 153 °C; under `CCOC(=O)c1ccccc1` [Ethyl benzoate], -34 °C. Under `CC(C(=O)O)c1ccc(-c2ccccc2)c(F)c1` (stereo not drawn) [2-fluoro-alpha-methyl-4-biphenylacetic acid] stands 113 °C; under `Nc1cc([N+](=O)[O-])ccc1O` [2-amino-4-nitrophenol], 143 °C. In the case of `Clc1c(Cl)c(Cl)c(Cl)c(Cl)c1Cl` [Hexachlorobenzene] [listing 1 of 2 here], the melting point turned out to be 228 °C. Then `CCCCCCCCCCC` [Undecane], with -26 °C; and `COc1ccccc1O` [2-methoxyphenol], with 30 °C. `Cc1cc(C)c(C)cc1C` [1,2,4,5-tetramethylbenzene] gave a melting point of 79 °C. Under `Nc1ccc2ncccc2c1` [6-aminoquinoline] stands 117 °C; under `Clc1c(Cl)c(Cl)c(Cl)c(Cl)c1Cl` [Hexachlorobenzene] [listing 2 of 2 here], 230 °C; under `NC(Cc1cc(I)c(Oc2cc(I)c(O)c(I)c2)c(I)c1)C(=O)O` (stereo not given) [Dextrothyroxine], 236 °C.

On to `CCCCc1ccc(C(N)=O)cc1` [4-n-butylbenzamide], for which the melting point stood at 128 °C.

On to `c1ccc(-c2ccc(-c3ccccc3)cc2)cc1` [p-terphenyl], for which the melting point turned out to be 213 °C. Compound `Nc1ccc(-c2cccs2)cc1` [4-(2-thienyl)aniline] had a melting point of 76 °C. `O=Cc1ccc(C=O)cc1` [terephthaldicarboxaldehyde] returned a melting point of 116 °C.

`O=C(O)CCc1ccc(O)cc1` [Desaminotyrosine] gave a melting point of 130 °C. Regarding `OCc1ccccc1` [benzyl_alcohol], the melting point was -15 °C. In the case of `COC(=O)CCC(C)C1CCC2C3C(OC(C)=O)C(Br)C4CCCCC4(C)C3CCC12C` (stereo not given) [methyl 7-(acetyloxy)-6-bromocholan-24-oate], the melting point came to 159 °C. Then `Nc1ccc(Br)cc1Br` [2,4-dibromoaniline], with 80 °C; and `CC(=O)OC1CCC2(C)C3CCC4(C)C(=O)CCC4C3C(=O)CC2(C)C1` (stereo not given) [5-methyl-7,17-dioxoandrostan-3-yl acetate], with 155 °C. Then `CCCCCCCCCCCCCCCCCO` [Heptadecan-1-ol], with 57 °C; and `O=C1Nc2c(Cl)ccc(Cl)c2C1=O` [4,7-dichloroisatin], with 248 °C. With `NC(=O)NCc1ccccc1` [benzylurea], the melting point is 149 °C.

Turning to `O=C(O)CSCC(=O)NC1CCSC1=O` (stereo not given) [erdosteine], the melting point worked out at 156 °C.

Compound `CC(C)(C)NCC(O)COc1cccc2c1C[C@H](O)[C@H](O)C2` (stereo not given in full) [Nadolol] displayed a melting point of 130 °C.

Take `CC[C@H](C)C(=O)O[C@H]1C[C@@H](C)C=C2C=C[C@H](C)[C@H](CC[C@@H]3C[C@@H](O)CC(=O)O3)[C@H]21` [lovastatin]: the melting point stood at 174 °C.

In the case of `O=C(O)c1ccc(C(=O)c2ccccc2)cc1` [4-benzoylbenzoic acid], the melting point is 199 °C. Take `O=Cc1cccc(I)c1` [m-iodobenzaldehyde]: the melting point was found to be 58 °C. Under `BrC(Br)Br` [Bromoform] stands 9 °C.

The compound `O=C(N[C@H](CO)[C@H](O)c1ccc([N+](=O)[O-])cc1)C(Cl)Cl` [chloramphenicol] registered a melting point of 151 °C. In turn, `Cc1cc(CO)nn1-c1ccccn1` [(5-methyl-1-pyridin-2-yl-1H-pyrazol-3-yl)methanol] showed a melting point of 45 °C. Then `CCCCC(=O)OCC(=O)[C@]1(O)Cc2c(O)c3c(c(O)c2[C@@H](OC2CC(NC(=O)C(F)(F)F)C(O)C(C)O2)C1)C(=O)c1c(OC)cccc1C3=O` (stereo not given in full) [Valrubicin], with 116 °C. Then `CC(C)Nc1ccccc1` [N-isopropylaniline], with -32 °C. As to `COC(=O)c1ccc(-c2cccc([N+](=O)[O-])c2)cc1` [methyl 3'-nitrobiphenyl-4-carboxylate], the melting point came to 143 °C. In the case of `CN1C(CCl)Nc2cc(Cl)c(S(N)(=O)=O)cc2S1(=O)=O` (stereo not given) [methyclothiazide], the melting point was 225 °C. In the case of `CCC(C)(C)c1ccc(O)cc1` [4-tert-pentylphenol], the melting point is 89 °C. As to `O=C(Nc1ccccc1/C=C/c1ccccc1)c1ccccc1` [N-{2-[(E)-2-phenylethenyl]phenyl}benzamide], the melting point amounted to 98 °C. The compound `CCCCc1ccc(NC(C)=O)cc1` [N-(4-butylphenyl)acetamide] returned a melting point of 105 °C. In turn, `CCc1cc(C(N)=S)ccn1` [Ethionamide] returned a melting point of 163 °C. Under `C[C@]12CC[C@H]3[C@@H](CCC4=CC(=O)CC[C@@]43C)[C@@H]1CC[C@@H]2O` [Testosterone] stands 154 °C; under `CCCCCCCCCCCCCC(N)=O` [N-tetradecanamide], 106 °C; under `CCCCCCCCCCO` [Decan-1-ol], 7 °C. Under `C=C(C)C(=O)OCCCC` [Butyl methacrylate] stands -50 °C. Then `CCOC(=O)c1cc(-c2ccccc2)n(-c2ccc(Cl)cc2Cl)n1`, with 124 °C.

`Cc1ccc(O)c(O)c1` [4-methylcatechol] came in with a melting point of 68 °C.

With `Nc1c(C(=O)O)cccc1C(F)(F)F` [2-amino-3-(trifluoromethyl)benzoic acid], the melting point came to 155 °C. Under `O=C(O)CCCCC=C(c1ccccc1)c1cccnc1` [isbogrel] stands 114 °C; under `CCOC(=O)c1ccc(CBr)cc1` [ethyl 4-(bromomethyl)benzoate], 31 °C; under `O=C(Cl)c1nc2ccccc2s1` [benzothiazole-2-carbonyl chloride], 114 °C. Under `O=c1cc(-c2ccccc2)oc2c1ccc1ccccc12` [alpha-naphthoflavone] stands 158 °C; under `O=C1c2ccccc2C(=O)c2c1ccc(O)c2O` [1,2-Dihydroxy-9,10-anthraquinone], 281 °C. Then `CC12CCC(C(=O)/C(=C\c3ccccc3[N+](=O)[O-])C1=O)C2(C)C` (stereo not given), with 141 °C; and `O=c1ncnc2n(C3CCCCC3)[nH]cc1-2` [1-cyclohexyl-1,2-dihydro-4H-pyrazolo[3,4-d]pyrimidin-4-one], with 252 °C.
